# Measurements: patent US20240254087A1, “SELECTIVE, PARTIAL, AND ARRESTIN-BIASED 5-HT2A AGONISTS WITH UTILITY IN VARIOUS DISORDERS” (Saint Joseph's University, priority 2021, published 2024)
# Starred links: 1 amine or outer side, 2 acyl side, 3 side chain; linkers in the order of their positions; H or OH if unused. Positions of bridges follow the written chain, without caps; N, C: chain ends. Non-standard residues stand in square brackets, D forms with d. Residues, ends and D or L forms follow the SMILES beside them. X1 = CC(=O)NC(C(=O)OC(C(C)C)C(N[*:1])C(=O)[*:2])C(O)C(C)C; PhLac = O=C(O)[CH](O)Cc1ccccc1; NMeT = CN[CH](C(=O)O)[CH](C)O; NMeA = CN[CH](C)C(=O)O; NMeDha = C=C(NC)C(=O)O
# How the values were obtained:
# [1] = system: 5-HT2A; experiment: Ca2+ flux assay, 5-HT2A; format: cell-based, human; settings: Gq/11 Ca2+ mobilization; higher number = skewed towards 5-HT2A
# [2] = target: T1, 5-HT1A (Homo sapiens, UniProt P08908); experiment: Competitive radioligand binding (NIMH PDSP)
# T1 sequence (P08908 1-422): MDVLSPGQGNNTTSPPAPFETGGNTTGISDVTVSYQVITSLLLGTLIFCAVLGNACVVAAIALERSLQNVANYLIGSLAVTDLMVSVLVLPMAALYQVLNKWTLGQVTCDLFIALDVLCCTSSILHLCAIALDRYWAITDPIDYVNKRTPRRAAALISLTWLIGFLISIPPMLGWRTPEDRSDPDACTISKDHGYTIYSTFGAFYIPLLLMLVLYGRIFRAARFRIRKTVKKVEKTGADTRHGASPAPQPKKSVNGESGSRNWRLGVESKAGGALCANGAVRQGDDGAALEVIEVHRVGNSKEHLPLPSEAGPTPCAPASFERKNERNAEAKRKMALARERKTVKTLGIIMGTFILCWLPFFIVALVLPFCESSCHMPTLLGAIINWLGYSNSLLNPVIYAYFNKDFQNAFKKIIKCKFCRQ
# Procedure: (§1) Method 1: Competitive binding experiments were performed by the National Institute of Mental Health Psychoactive Drug Screening Program (NIMH PDSP) using described methods or 5-HT2A experiments performed using [3H]-ketanserin displacement in human 5-HT2A expressing membranes. Target compounds were dissolved in DMSO and an initial screen performed to assess displacement of the radioligand from target receptors at a concentration of 10,000 nM. […] For the Ki experiments, compounds were always tested in triplicate on separate plates. Each plate also contained a known ligand for the receptor as a positive control.
# [3] = target: 5-HT1B (Homo sapiens, UniProt P28222); experiment: Competitive radioligand binding (NIMH PDSP)
# 5-HT1B, sequence (P28222 whole entry, species assumed): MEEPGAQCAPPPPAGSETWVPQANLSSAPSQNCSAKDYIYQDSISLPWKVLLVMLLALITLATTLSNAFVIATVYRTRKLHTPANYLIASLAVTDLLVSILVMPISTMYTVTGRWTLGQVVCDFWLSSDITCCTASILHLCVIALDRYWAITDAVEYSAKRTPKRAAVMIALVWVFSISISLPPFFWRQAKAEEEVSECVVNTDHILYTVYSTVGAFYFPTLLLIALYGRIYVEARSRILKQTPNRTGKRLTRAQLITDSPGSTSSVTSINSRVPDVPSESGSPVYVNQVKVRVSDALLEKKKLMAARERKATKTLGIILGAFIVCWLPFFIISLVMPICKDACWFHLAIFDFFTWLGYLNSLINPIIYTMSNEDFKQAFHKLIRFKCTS
# Procedure: as §1
# [4] = target: 5-HT1D (Homo sapiens, UniProt P28221); experiment: Competitive radioligand binding (NIMH PDSP)
# 5-HT1D, sequence (P28221 whole entry, species assumed): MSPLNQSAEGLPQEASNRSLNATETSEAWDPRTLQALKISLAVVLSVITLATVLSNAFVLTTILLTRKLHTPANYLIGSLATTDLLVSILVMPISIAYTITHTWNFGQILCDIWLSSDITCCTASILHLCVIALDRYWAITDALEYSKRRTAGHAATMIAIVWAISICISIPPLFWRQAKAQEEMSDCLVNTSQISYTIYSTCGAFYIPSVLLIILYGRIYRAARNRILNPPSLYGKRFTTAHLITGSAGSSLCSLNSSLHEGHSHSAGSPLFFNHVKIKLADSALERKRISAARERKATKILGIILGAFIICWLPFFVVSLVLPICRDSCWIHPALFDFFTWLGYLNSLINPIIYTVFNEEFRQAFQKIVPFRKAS
# Procedure: as §1
# [5] = target: 5-HT1e (Homo sapiens, UniProt P28566); experiment: Competitive radioligand binding (NIMH PDSP)
# 5-HT1e, sequence (P28566 whole entry, species assumed): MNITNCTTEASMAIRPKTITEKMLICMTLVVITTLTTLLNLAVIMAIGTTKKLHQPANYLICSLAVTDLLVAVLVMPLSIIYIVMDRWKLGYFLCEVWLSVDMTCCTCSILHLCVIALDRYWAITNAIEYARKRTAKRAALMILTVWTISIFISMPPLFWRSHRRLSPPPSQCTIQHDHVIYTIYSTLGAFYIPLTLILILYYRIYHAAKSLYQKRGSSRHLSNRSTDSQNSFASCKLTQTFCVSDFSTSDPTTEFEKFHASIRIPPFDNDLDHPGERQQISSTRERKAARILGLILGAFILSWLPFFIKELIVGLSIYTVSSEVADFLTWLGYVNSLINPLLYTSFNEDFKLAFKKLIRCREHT
# Procedure: as §1
# [6] = target: T2, 5-HT2A (Homo sapiens, UniProt P28223); experiment: Competitive radioligand binding (NIMH PDSP)
# T2 sequence (P28223 whole entry): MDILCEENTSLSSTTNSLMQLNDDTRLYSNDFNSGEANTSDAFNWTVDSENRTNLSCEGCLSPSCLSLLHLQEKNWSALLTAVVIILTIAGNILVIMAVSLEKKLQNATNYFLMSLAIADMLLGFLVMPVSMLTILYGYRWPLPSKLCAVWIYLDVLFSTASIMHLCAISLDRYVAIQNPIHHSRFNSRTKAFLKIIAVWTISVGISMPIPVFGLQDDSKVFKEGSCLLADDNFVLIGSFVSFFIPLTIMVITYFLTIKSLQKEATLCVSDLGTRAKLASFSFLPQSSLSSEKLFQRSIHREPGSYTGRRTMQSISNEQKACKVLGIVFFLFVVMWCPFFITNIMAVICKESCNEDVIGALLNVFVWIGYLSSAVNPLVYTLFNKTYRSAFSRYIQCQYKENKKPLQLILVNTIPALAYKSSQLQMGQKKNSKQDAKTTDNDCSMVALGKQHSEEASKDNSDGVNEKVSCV
# Procedure: as §1
# [7] = target: T3, 5-HT3 (Homo sapiens, UniProt P46098); experiment: Competitive radioligand binding (NIMH PDSP)
# T3 sequence (P46098 24-478): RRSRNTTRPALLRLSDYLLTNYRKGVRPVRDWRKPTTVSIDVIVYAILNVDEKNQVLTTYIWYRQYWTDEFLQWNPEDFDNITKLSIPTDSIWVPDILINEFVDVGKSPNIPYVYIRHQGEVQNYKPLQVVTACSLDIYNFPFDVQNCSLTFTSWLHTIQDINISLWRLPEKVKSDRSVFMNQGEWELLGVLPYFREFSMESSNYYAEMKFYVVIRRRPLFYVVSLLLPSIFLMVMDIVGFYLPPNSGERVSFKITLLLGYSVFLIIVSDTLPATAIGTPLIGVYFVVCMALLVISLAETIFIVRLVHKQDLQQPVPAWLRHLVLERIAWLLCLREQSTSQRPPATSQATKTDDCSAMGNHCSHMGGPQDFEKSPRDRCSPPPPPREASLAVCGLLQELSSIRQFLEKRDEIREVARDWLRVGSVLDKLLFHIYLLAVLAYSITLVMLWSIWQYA
# Procedure: as §1
# [8] = target: 5-HT5a (Homo sapiens, UniProt P47898); experiment: Competitive radioligand binding (NIMH PDSP)
# 5-HT5a, sequence (P47898 whole entry, species assumed): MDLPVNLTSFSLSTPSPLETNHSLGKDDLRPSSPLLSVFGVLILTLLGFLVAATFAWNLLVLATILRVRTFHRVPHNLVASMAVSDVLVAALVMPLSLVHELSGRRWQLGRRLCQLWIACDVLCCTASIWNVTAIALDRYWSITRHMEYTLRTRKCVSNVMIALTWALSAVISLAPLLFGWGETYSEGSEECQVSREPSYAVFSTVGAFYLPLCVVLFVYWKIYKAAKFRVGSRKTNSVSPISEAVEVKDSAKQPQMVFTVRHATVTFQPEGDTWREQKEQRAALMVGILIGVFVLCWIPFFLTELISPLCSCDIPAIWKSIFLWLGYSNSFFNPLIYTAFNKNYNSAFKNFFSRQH
# Procedure: as §1
# [9] = target: 5-HT6 (Homo sapiens, UniProt P50406); experiment: Competitive radioligand binding (NIMH PDSP)
# 5-HT6, sequence (P50406 whole entry, species assumed): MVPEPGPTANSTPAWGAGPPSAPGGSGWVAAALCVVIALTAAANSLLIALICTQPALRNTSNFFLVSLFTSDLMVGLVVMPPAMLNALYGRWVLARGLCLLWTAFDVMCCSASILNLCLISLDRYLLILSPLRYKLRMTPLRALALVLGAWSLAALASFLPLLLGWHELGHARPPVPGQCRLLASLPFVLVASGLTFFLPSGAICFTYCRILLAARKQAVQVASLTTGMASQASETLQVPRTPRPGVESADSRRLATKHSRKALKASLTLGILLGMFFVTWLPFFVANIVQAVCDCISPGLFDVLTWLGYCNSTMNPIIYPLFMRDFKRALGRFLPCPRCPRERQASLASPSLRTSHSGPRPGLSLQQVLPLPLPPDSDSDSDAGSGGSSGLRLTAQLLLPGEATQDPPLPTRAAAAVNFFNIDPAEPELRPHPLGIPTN
# Procedure: as §1
# [10] = target: 5-HT7 (Homo sapiens, UniProt P34969); experiment: Competitive radioligand binding (NIMH PDSP)
# 5-HT7, sequence (P34969 whole entry, species assumed): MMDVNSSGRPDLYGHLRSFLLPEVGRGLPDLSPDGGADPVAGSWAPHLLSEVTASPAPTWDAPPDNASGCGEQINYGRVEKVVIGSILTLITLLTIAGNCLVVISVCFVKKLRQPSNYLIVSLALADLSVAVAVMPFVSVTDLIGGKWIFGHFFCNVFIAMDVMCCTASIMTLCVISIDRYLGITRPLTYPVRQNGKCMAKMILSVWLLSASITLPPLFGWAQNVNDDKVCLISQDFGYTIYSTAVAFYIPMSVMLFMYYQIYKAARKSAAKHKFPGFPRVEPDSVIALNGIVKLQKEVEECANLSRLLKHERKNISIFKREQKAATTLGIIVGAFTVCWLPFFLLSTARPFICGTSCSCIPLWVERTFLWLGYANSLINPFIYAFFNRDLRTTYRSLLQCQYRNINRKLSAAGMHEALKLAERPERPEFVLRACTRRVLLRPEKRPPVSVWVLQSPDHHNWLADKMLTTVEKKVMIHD
# Procedure: as §1
# [11] = target: T2, 5-HT2A; experiment: Ca2+ flux assay, 5-HT2A; format: cell-based; parameters: expressed in transfected cells
# [12] = target: T4, 5-HT2B (Homo sapiens, UniProt P41595); experiment: Ca2+ flux assay, 5-HT2B; format: cell-based; parameters: expressed in transfected cells; settings: Ca2+ flux
# T4 sequence (P41595 whole entry): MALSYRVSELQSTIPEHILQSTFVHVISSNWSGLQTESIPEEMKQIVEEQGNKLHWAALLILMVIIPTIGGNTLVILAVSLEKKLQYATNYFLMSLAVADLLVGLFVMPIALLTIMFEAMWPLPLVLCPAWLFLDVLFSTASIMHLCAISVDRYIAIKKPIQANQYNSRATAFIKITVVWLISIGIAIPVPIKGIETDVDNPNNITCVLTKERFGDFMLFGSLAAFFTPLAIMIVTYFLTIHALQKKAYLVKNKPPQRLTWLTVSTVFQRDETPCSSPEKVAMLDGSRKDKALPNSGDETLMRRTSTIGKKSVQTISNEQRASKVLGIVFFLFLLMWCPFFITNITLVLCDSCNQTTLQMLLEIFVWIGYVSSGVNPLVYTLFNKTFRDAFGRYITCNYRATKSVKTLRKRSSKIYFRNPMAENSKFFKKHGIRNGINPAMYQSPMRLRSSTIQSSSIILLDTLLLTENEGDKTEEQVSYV
# [13] = target: T5, 5-HT2C (Homo sapiens, UniProt P28335); experiment: Ca2+ flux assay, 5-HT2C; format: cell-based; parameters: expressed in transfected cells
# T5 sequence (P28335 33-458): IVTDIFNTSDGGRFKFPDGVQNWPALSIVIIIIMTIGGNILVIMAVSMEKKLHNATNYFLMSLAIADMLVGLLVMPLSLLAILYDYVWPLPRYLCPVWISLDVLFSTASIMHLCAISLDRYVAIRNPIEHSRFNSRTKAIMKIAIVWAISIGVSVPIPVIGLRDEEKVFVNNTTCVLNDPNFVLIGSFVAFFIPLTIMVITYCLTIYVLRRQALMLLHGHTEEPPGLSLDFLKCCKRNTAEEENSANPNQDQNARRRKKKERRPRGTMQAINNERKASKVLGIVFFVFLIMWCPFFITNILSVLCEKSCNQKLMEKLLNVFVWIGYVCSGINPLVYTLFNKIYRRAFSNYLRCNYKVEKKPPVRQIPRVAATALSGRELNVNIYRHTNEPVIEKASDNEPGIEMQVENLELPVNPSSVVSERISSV
# [14] = target: T4, 5-HT2B; experiment: Competitive radioligand binding (NIMH PDSP); parameters: expressed in transfected cells
# Procedure: as §1
# [15] = target: T5, 5-HT2C; experiment: Competitive radioligand binding (NIMH PDSP); parameters: expressed in transfected cells
# Procedure: as §1
# [16] = target: T2, 5-HT2A; experiment: [3H]-ketanserin displacement, 5-HT2A membranes; format: binding; parameters: ES-313-M400UA (membranes); host or cells: CHO-K1; settings: [3H]-ketanserin displacement (n = 2); read-out: 5-HT2A pKi Mean ± SEM (converted)
# [17] = target: T2, 5-HT2A; experiment: cell-based; parameters: expressed in transfected cells; host or cells: HEK293T, transient; settings: for Emax: read-out: 5-HT2A Gq Emax (% 5-HT), BRET, mean ± SEM
# [18] = target: T2, 5-HT2A; experiment: cell-based; parameters: expressed in transfected cells; host or cells: HEK293T, transient; settings: for Emax: read-out: 5-HT2A β-arrestin Emax (% 5-HT), BRET, mean ± SEM
# [19] = system: mice; experiment: PCP-induced locomotor hyperactivity; format: in vivo, mouse; settings: PCP 5 mg/kg IP, 25N-N1-Nap 3 mg/kg SC, M100907 0.03 mg/kg SC
# Procedure: (A). DOI, a hallucinogen and 5-HT2A agonist, was administered IP 10 min after SC administration of vehicle or test drug. A and then HTR activity was assessed for 30 minutes. *p<0.001, significant difference vs. vehicle (B). Vehicle or the NMDA receptor antagonist PCP (5 mg/kg) was injected IP 10 min after SC administration of vehicle or 25N-NB1-Nap (16), and then the mice were placed in the test chambers 10 min later for a 60-min assessment of locomotor activity. (C). […] Mice were treated with vehicle or M100907 (0.03 mg/kg SC) 10 min prior to vehicle or PCP (5 mg/kg IP): animals were placed in the test chambers 10 min after treatment with PCP. Animals were tested for 60 min. *p<0.01 vs. vehicle: ^#p<0.01 vs. PCP alone.
# (§2) Male C57BL/6J mice (6-8 weeks old) from Jackson Labs (Bar Harbor, ME, USA) were used for the behavioral experiments. The mice were housed on a reversed light-dark cycle (lights on at 1900 h, off at 0700 h) in an AAAC-approved vivarium at the University of California San Diego. Mice were housed up to four per cage in a climate-controlled room and with food and water provided ad libitum except during behavioral testing. Testing was performed between 1000 and 1800 h (during the dark phase of the light-dark cycle). The studies were conducted in accordance with National Institutes Health (NIH) guidelines and were approved by the University of California San Diego Institutional Animal Care and Use Committee.
# Edelfosine, DOI, R—(−)-DOI, and PCP were injected IP (5 mL/kg): 25N—NB and its derivatives were injected SC (5 mL/kg or 10 mL/kg): YM-254,890 was injected into the lateral ventricle (2 μL) over 1 min.
# The mouse behavioral pattern monitor (BPM) was used to assess locomotor activity. Each mouse BPM chamber (San Diego Instruments, San Diego, CA, USA) is a transparent Plexiglas box with an opaque 30×60 cm floor, enclosed in a ventilated isolation box. The position of the mouse in x.y coordinates is recorded by a grid of 12×24 infrared photobeams located 1 cm above the floor. A second row of 16 photobeams (parallel to the long axis of the chamber, located 2.5 cm above the floor) is used to detect rearing behavior. Holepoking behavior is detected by 11 1.4-cm holes that are situated in the walls (3 holes in each long wall, 2 holes in each short wall) and the floor ([…]); each hole is equipped with an infrared photobeam. The status of each photobeam is sampled every 55 ms and recorded for offline analysis. Locomotor activity was quantified as distance traveled, which was analyzed in 20-min blocks using a three-way ANOVA, with pretreatment and treatment as between subject variables and time as a within-subject variable. Tukey's studentized range method was used for post hoc comparisons.
# [20] = target: T2, 5-HT2A; settings: cited from earlier work
# [21] = system: male C57BL/6J mice; experiment: Tolerance: DOI-induced HTR after 5 days repeated treatment; format: in vivo, mouse; settings: 5 days SC: 25N-N1-Nap 20, DOI 10, pimavanserin 1 mg/kg/day
# Procedure: (§3) The mice were allowed to recover from the magnet implantation surgeries for at least 1 week prior to behavioral testing. HTR experiments were conducted in a well-lit room, and the mice were allowed to habituate to the room for at least 1 h prior to testing. Head twitches was assessed in a 12-cm diameter glass cylinder surrounded by a magnetometer coil. Coil voltage was low-pass filtered (2 kHz), amplified, and digitized (20-kHz sampling rate) using a Powerlab/8SP with LabChart v 7.3.2 (ADInstruments, Colorado Springs, CO, USA). […] HTR counts were analyzed using one-way ANOVAs. Dunnett's test was used for post hoc comparisons.
# [22] = system: male C57BL/6J mice; experiment: Blockade of agonist-induced HTR by pretreatment; format: in vivo, mouse; settings: C57BL/6J mice; pretreatment with Gq/11 or phospholipase C inhibitor
# Procedure: Vehicle or the NMDA receptor antagonist PCP (5 mg/kg) was injected IP 10 min after SC administration of vehicle or 25N-NB1-Nap (16), and then the mice were placed in the test chambers 10 min later for a 60-min assessment of locomotor activity. (C). […] Mice were treated with vehicle or M100907 (0.03 mg/kg SC) 10 min prior to vehicle or PCP (5 mg/kg IP): animals were placed in the test chambers 10 min after treatment with PCP.
# as §2, §3
smiles,measurement,setting,value
"COc1ccc(OC)c(CNCCc2cc(OC)c([N+](=O)[O-])cc2OC)c1 [25N-NB-2,5-DiMeO (20)]",5-HT2A/5-HT2c Selectivity Factor ΔLog(Emax/EC50),[1],5-HT2A Selective
same,Ki,[2],0.513 µM
same,Ki,[3],> 10 µM
same,Ki,[4],> 10 µM
same,Ki,[5],> 10 µM
same,Ki,[6],0.229 µM
same,Ki,[7],> 10 µM
same,Ki,[8],> 10 µM
same,Ki,[9],> 10 µM
same,Ki,[10],> 10 µM
same,EC50,"[11]; 5-HT2A EC50, nM, Ca2+ flux",133 nM
same,Emax,"[11]; read-out: 5-HT2A Emax % 5-HT, Ca2+ flux",72 ± 1%
same,"5-HT2B EC50, nM",[12],No activity
same,Emax,[12]; read-out: 5-HT2B Emax % 5-HT,< 10%
same,"5-HT2C EC50, nM",[13],No activity
same,Emax,[13]; read-out: 5-HT2C Emax % 5-HT,< 10%
same,Ki,[14],0.135 µM
same,Ki,[15],0.145 µM
COc1cccc(COc2ccccc2CNCCc2cc(OC)c(OC)cc2OC)c1 [(79)],Ki,[16],0.158 µM
same,5-HT2A Gq dissociation pEC50,"[17]; BRET, mean ± SEM",No activity
same,Emax,[17],< 10%
same,EC50,[18],1.12 µM
same,Emax,[18],33 ± 4.8%
COc1cc(OC)c(OC)cc1CCNCc1c[nH]nc1-c1ccccc1 [(80)],Ki,[16],0.302 µM
same,EC50,[17],0.537 µM
same,Emax,[17],31.8 ± 2.3%
same,EC50,"[18]; BRET, mean ± SEM, read-out: 5-HT2A β-arrestin recruitment pEC50 (converted)",0.0794 µM
same,Emax,[18],102 ± 3.7%
"COc1cccc([C@H](O)C2CCN(CCc3ccc(F)cc3)CC2)c1OC [Compound M100907, reference compound]",Effect on PCP-induced locomotor hyperactivity,[19],blocks PCP induced hyperactivity
same,Effect on PCP-induced locomotor hyperactivity,"[19]; listed as M100,907",blocked
"CCN(CC)C(=O)[C@@H]1C=C2c3cccc4[nH]cc(c34)C[C@H]2N(C)C1 [LSD, reference compound]",Emax in a 5-HT2A-Gq calcium flux assay,[20],84.6%
same,5-HT2A β-arrestin Emax (% 5-HT),"[18]; BRET, mean ± SEM",85 ± 3 % 5-HT
CC(C)COc1ccc(CNC(=O)N(Cc2ccc(F)cc2)C2CCN(C)CC2)cc1 [Pimavanserin],Ability of DOI (1 mg/kg IP) to induce the HTR after repeated daily treatment,[21],not altered
"C=C1C(=O)NC(C)C(=O)N(C)C(C)C(=O)NC(C(OC(=O)C(NC(C)=O)C(O)C(C)C)C(C)C)C(=O)N(C)C(C(C)OC)C(=O)OC(C)C(NC(C)=O)C(=O)OC(Cc2ccccc2)C(=O)N1C (stereo not shown) [YM-254,890, reference compound] (Ac-T[PhLac][NMeDha]A[NMeA][X1][NMeT](Me); ester 1-C; configuration not given here)",Blockade of the HTR induced by (+/−)-DOI and 25N-NBOMe,[22],blocked
